Values of other authors in patent US7632519B2, “TRPV1 agonist compounds, formulations, prodrugs, methods for using the same” (NeurogesX, Inc., priority 2005, dated 2009).

Details: oral dose levels of up to 2 mg/kg, humans

## COc1cc(CNC(=O)CCCC/C=C/C(C)C)ccc1O [capsaicin]
  adverse effects after oral dosing: without reported adverse effects
